A word on the melting point: it is the temperature of the solid-liquid transition.

`COc1cc(C(=O)CS(C)(=O)=O)cc(OC)c1N(C)C(C)=O` came in with a melting point of 141 to 142 °C.

In turn, `CCCN1CCN(c2cccc3c2C[C@H](NC(C)=O)CC3)CC1` came in with a melting point of 139 to 140 °C.

Turning to `COc1ccc(S(=O)(=O)N(Cc2cccnc2)[C@@H](C(=O)NOCc2ccccc2)C(C)C)cc1`, the melting point was 74.5 to 76 °C.

Compound `O=P(Oc1cccc(OP(=O)(c2ccccc2)c2ccccc2)c1)(c1ccccc1)c1ccccc1` displayed a melting point of 130 °C.

`CCOC(=O)c1ccc(COCc2csc3nc(C(=O)NCc4cccc(CS(C)=O)c4)[nH]c(=O)c23)cc1` (centres undefined) came in with a melting point of 195 to 196 °C.

In turn, `Cc1c(NC(=O)c2ccc(CC(=O)C(C)C)cc2)ccc2cc(CN3CCCC3)cnc12` registered a melting point of 146 to 147 °C.

The compound `CC1Cc2ccc(Br)cc2C(c2ccc(N)cc2)=NN1C1CC1` (centres undefined) registered a melting point of 113 to 116 °C.

`Oc1cccnc1Oc1cccc(Cl)c1` returned a melting point of 109 to 110 °C.

Turning to `Oc1ccc(CCNc2ncnc3scnc23)cc1`, the melting point fell in the range of 161 to 168 °C.

As for `C=CCN(CC=C)c1nc(NC(=O)c2c(Cl)cccc2Cl)n2oc(=O)nc2n1`, the melting point lay within 133 to 135 °C.

Regarding `COc1c(/C=C/c2ccc(NS(C)(=O)=O)cc2)cc(N2CCC(=O)NC2=O)cc1C(C)(C)C`, the melting point is 260 to 261 °C.

With `CCOC(=O)c1cn(C)c2cnc3c(F)c(Cl)c(F)cc3c2c1=O`, the melting point stood at 293 °C.

As to `O=C(O)CCNC(=O)OCC(Cl)(Cl)Cl`, the melting point fell in the range of 89.4 to 91 °C.

Consider `O=C(O)CCCCCCCSc1ccc(O)cc1`, for which the melting point was 94 to 95 °C.

`Cc1nnc(O[Si](C)(C)C)nc1O[Si](C)(C)C` came in with a melting point of 43 °C.

With `Cc1c(S(=O)c2ccc([N+](=O)[O-])cc2)cc(C(C)(C)C)c(O)c1C(=O)O` (centres undefined), the melting point lay in the range of 201 to 202 °C.

In turn, `CCONC(=O)NNC(=O)CC` registered a melting point of 122 °C.

As for `COc1ccc(C(=O)c2ccc(OCc3nc(-c4ccccc4)oc3C)nc2)c(OC(C)C(=O)O)c1` (centres undefined), the melting point fell in the range of 162 to 163 °C.

`O=[N+]([O-])c1cccc(-c2ccccc2O)c1` yielded a melting point of 99.5 to 100 °C.

The compound `OCc1cc(Cl)cc(CO)c1O` registered a melting point of 161 to 163 °C.

Take `Cc1cccc(C)c1-n1cnc(NCc2ccccn2)nc1=O`: the melting point fell in the range of 165 to 166 °C.

As for `CCOc1cnccc1C#N`, the melting point lay within 56 to 57 °C.

As for `NC(=NCCCc1ccccn1)NCCCc1c[nH]cn1`, the melting point fell in the range of 85 to 86 °C.

`CCOC(=O)[C@@H](O)[C@@H]1OC(=O)c2cc(OC)c(OS(=O)(=O)c3ccc(C)cc3)cc21` returned a melting point of 107 to 108 °C.

Compound `Cc1cc2oc(=O)c3c(c2cc1[N+](=O)[O-])CCN(CCN1CC2CCC(CC2)C1)C3` came in with a melting point of 187 to 188 °C.

Take `CCCN(CC)Cc1nc2cc(OC)c(OC)cc2c(-c2ccc(OC)c(OC)c2)c1C(=O)OCC`: the melting point is 105 to 106 °C.

Regarding `COc1cccc(C(CN2CCN(c3cccc(C(F)(F)F)c3)CC2)C2(O)CCCC2)c1` (centres undefined), the melting point fell in the range of 158 to 160 °C.

`O=C(O)C(O)c1cccc(OCc2ccccc2Cl)c1OCc1ccccc1Cl` (centres undefined) came in with a melting point of 98 to 100 °C.

`C=CCOC1OC(C(O)CO)C(OCc2ccccc2)C1O` (centres undefined) yielded a melting point of 84 to 85 °C.

`Cc1oc(-c2ccco2)nc1COc1ccc(Cn2cc(CCC(=O)O)c(OCc3ccccc3)n2)cc1` displayed a melting point of 104 to 105 °C.

The compound `CCOC(=O)C1=C(C)NC(N=CN2CCCCC2)=C(C(=O)OCC)C1c1ccccc1Cl` (centres undefined) gave a melting point of 145 °C.

Regarding `CNC(=O)CC1CN=C(c2cc3cc(Oc4ccc(S(C)(=O)=O)nc4)cc(OC(C)COC)c3[nH]2)S1` (centres undefined), the melting point fell in the range of 107 to 109 °C.

For `Cc1cc2c(cc1Br)C(C)(C)C=CC2(C)C`, the melting point lay within 103 to 105 °C.

`NS(=O)(=O)c1cc2ncccc2o1` registered a melting point of 219 to 221 °C.

Take `O=C(Nc1ccccc1)n1cc(F)c(NCc2ccccc2F)nc1=O`: the melting point was 154 to 157 °C.

On to `CC(=NO)c1nc(-c2cccnc2)[nH]c1C`, for which the melting point lay in the range of 215 to 216 °C.

In turn, `Nc1nc2c(ncn2C2CC(O)C(CO)O2)c(=O)[nH]1` (centres undefined) displayed a melting point of over 300 °C.

The compound `CCOC(=O)C1=NNC(C)=C(C(=O)OC)C1c1cccc([N+](=O)[O-])c1` (centres undefined) showed a melting point of 174 °C.

The compound `CCOC(=O)c1cnn(-c2ccc(OC)c(C#N)c2)c1N` came in with a melting point of 195 to 196 °C.

`O=c1[nH]c2sc(-c3ccccc3)nc2c2ccccc12` came in with a melting point of over 310 °C.

Turning to `COC(=O)C1(Oc2cc(-n3c(=O)cc(C(F)(F)F)n(C)c3=O)c(F)cc2Cl)CC=CNC1=O` (centres undefined), the melting point turned out to be 82.4 °C.

The compound `Nc1nc(-c2cc(Cl)ccc2Cl)nc(N2CCC(Cc3ccccc3)CC2)n1` returned a melting point of 159 to 161 °C.

In turn, `CCCc1nc2c(N)nc3cc(C(F)(F)F)ccc3c2s1` gave a melting point of 215 to 216 °C.

In turn, `CS(=O)COC(=O)c1oc(-c2ccccc2)cc(=O)c1Br` (centres undefined) came in with a melting point of 159 °C.

As to `COc1cc(Nc2c(C#N)cnc3cc(-c4ccc(CN5CCOCC5)nc4)ccc23)c(Cl)cc1Cl`, the melting point is 195 to 197 °C.

In turn, `CCOC(=O)c1cn(C2CC2)c2cc(-c3cc(C)nc(CO)c3)c(F)cc2c1=O` returned a melting point of 240 °C.

In turn, `Nc1cc2c(Nc3ccc(F)c(Cl)c3)ncnc2cc1OCC1CCOCC1` registered a melting point of 221 °C.

For the compound `CC(=O)Nc1sc2c(c1C(=O)c1ccccc1)CCCC2`, the melting point lay in the range of 116 to 119 °C.

Consider `CCCc1cccc2c(/C=C(\C)C(=O)O)cc(OC)c(OC(C)=O)c12`, for which the melting point was in the range of 207 to 208 °C.

`CN1C(=O)[C@]2(C)CC[C@](NCC(=O)N3CCC[C@H]3C#N)(C1=O)C2(C)C` yielded a melting point of 141 to 144 °C.

Consider `CC(C)Oc1ccccc1C1(N[C@H](CO)c2ccccc2)C(=O)Nc2ccc(Cl)cc21` (some centres undefined), for which the melting point was determined as 193 °C.

In turn, `CN(C)c1ccc(-c2cnc3[nH]cc(C(=O)C4(C)CCCCC4)c3n2)cc1` displayed a melting point of 272 to 274 °C.

In turn, `CCOC(=O)c1sc(NC(=O)c2cc(Br)ccc2O)nc1-c1ccccc1` showed a melting point of 197 to 199 °C.

Compound `C=CC(C)(C)C(=O)COc1ccc(-c2ccccc2)cc1` returned a melting point of 42 to 44 °C.

`COCCC1(C(=O)N[C@@H](Cc2ccc(NC(=O)c3c(Cl)cccc3Cl)cc2)C(=O)OC)CCCC1` came in with a melting point of 85 to 87 °C.

The compound `O=C(NCc1ccccc1)C1=C(C(=O)Nc2ccc(Cl)cc2F)CCCC1` yielded a melting point of 121 to 123 °C.

The compound `Fc1cccc(CSc2nnc(-c3ccnc4[nH]ccc34)o2)c1` yielded a melting point of 190 to 191 °C.

Regarding `CNC(=O)C1=CC(COC)(COC)Oc2ccc([N+](=O)[O-])cc21`, the melting point is 147 to 149 °C.

Regarding `CCCn1nc2c(N)nc3ccccc3c2c1CCNC(C)=O`, the melting point lay within 185 to 186 °C.

The compound `O=C(O)c1c(C(F)(F)F)nc2c(C(F)(F)F)cccc2c1O` had a melting point of 188 °C.

For the compound `O=c1[nH]c(Nc2ccccc2)nc2c1ncn2CC(O)CO` (centres undefined), the melting point fell in the range of 312 to 315 °C.

The compound `CNCC(=O)N1CC(c2ccc(Cl)cc2)Sc2ccccc21` (centres undefined) had a melting point of 139 to 140 °C.

On to `O=c1nc(-c2cccc(CO)n2)sc2ccccc12`, for which the melting point fell in the range of 208 to 209 °C.

For the compound `Oc1ccc(Cc2nc(-c3cccs3)c[nH]2)cc1`, the melting point lay within 189 to 191 °C.

Values taken from a melting point compilation (Tetko et al.; mined from patent text by program, amines drawn as free bases though some values may be those of a salt).
